Test [1] deals with T1, cloned human ORL1 receptors (Homo sapiens, UniProt P41146).
T1 construct: expressed in transfected cells; host or cells: CHO cells (membranes)
Briefly: [3H]-OFQ/nociceptin receptor binding assay. The method, then: (§1) Radioligand binding assays are commonly used to determine the affinity (Ki) or potency of a compound to bind to a particular receptor or target protein. A filtration-based [3H]-OFQ/nociceptin receptor binding assay is developed based on previous assay formats (Ardati A, Henningsen R A, Higelin J, Reinscheid R K, Civelli O, Monsma F J Jr. Mol. Pharmacol. 1997 May; 51(5):816-24.) with minor modifications. [3H]-OFQ/nociceptin binding assays are carried out in deep-well 96-well plates. [^3H]OFQ (final assay concentration 0.2 nM) competition studies are carried out with 5-10 μg of membrane protein (isolated from Chinese hamster ovary cells (CHO cells) expressing cloned human ORL1 receptors) in a final assay volume of 0.5 mL of buffer containing 20 mM HEPES, pH 7.4, 5 mM MgCl2, 1 mM EGTA, 100 mM NaCl, 0.1% bovine serum albumin. Samples are incubated for 60 min. at room temperature, which is found to be optimal for competition assays. The assays are terminated by filtration through glass fiber filters (Wallac filtermat A) [pretreated with 0.3% polyethylenimine (Sigma) for 1 hr] on a Tometc cell harvester, and the filters are washed three times with 5 mL of ice-cold 50 mM Tris.HCl, pH 7.4. Filtermats are then dried and imbedded with Meltilex scintillant A and the radioactivity counted in a Wallac Microbeta scintillation counter. Specific binding is determined by displacement with 100 nM unlabeled nociceptin. Curves are plotted as the percent of specific binding and IC50 values are determined using a sigmoidal dose response curve with variable slope. K, values are calculated from the IC50 by the equation of Cheng and Prusoff (Cheng, Y. C., and Prusoff, W. H., Biochem. Pharmacol. 22, 3099-3108 (1973)) where Ki=IC50×(1+D×Kd^−1)^−1. Similarly, Ki for the mu, kappa and delta opioids, serotonin, adrenergic, and muscarinic receptors may be determined using membranes expressing the desired receptor and appropriate corresponding radioligand competitor molecules.

In another test the target is Delta Opioid (Homo sapiens, UniProt P41143). As to the kind of experiment: Radioligand binding selectivity. The procedure: as §1
The target in another test is Adenosine A3 (Homo sapiens, UniProt P0DMS8). Briefly: Radioligand binding selectivity.
In test [2] the target is T2, cloned human ORL1/nociceptin receptors (Homo sapiens, UniProt P41146).
T2 construct: expressed in transfected cells
Briefly: Functional blockade of agonist-mediated G-protein activation, GTP-γ-[35S] binding. The format is biochemical. From the text:
Agonist-mediated stimulation of G-protein coupled receptors results in the activation of membrane associated Gαβγ-protein heterotrimer complexes, and represents the first step in the transduction of extracellular signals to modification of intracellular pathways. The first step in activation of receptor-mediated activation of Gαβγ-proteins heterotrimer is the exchange of Gα subunit bound guanosine diphoshpate (GDP) for guanosine triphosphate (GTP). The binding of GTP to the Gα subunit causes dissociation of the heterotrimer subunits, Gβ and Gγ, resulting in the modulation of several intracellular signaling cascades. Measurement of receptor-mediated G-protein activation can be measured using the non-hydrolyzable radiolabeled analog of GTP, GTP-γ-[35S]. Utilizing this methodology, antagonist affinity (Kb) is measured in membranes expressing cloned human ORL1/nociceptin receptors using a GTP-γ-[35S] binding assay according to previously described protocols with minor modifications (DeLapp et al., J Pharmacol Exp Ther. 1999 May; 289(2):946-55; Ozaki et al., Eur J Pharmacol. 2000 Aug. 18; 402(1-2):45-53). Assays are conducted in a 200-μl volume with the following buffer composition: 100 mM NaCl, 20 mM HEPES, 5 mM MgCl2, 1 mM EDTA, 0.1% BSA, 3 μM GDP, 0.5 nM [^35S]GTPγS. ORL1 receptor membrane suspension is added at a concentration of 20 μg protein per well and receptor stimulation is achieved using 300 nM nociceptin/OFQ. Wheat germ agglutinin coated SPA beads (Amersham, Arlington Hts., Ill.) are added at 1 mg per well to detect membrane-bound [^35S]GTPγS. Plates are sealed and incubated for 2 hr. at room temperature. Plates are then placed at 4° C. overnight to allow the SPA beads to settle and then counted in a Wallac Microbeta. Specific [^35S]GTPγS binding is determined as the difference in CPM observed in the absence and presence of 10 μM unlabeled GTPγS. Data are plotted as the percent of specific [^35S]GTPγS bound. Curves are plotted as the percent of specific binding and IC50 values are determined using a sigmoidal dose response curve with variable slope. Antagonist affinity (Kb) is estimated according to DeLapp et al., 1999 using a modification of the equation of Cheng and Prusoff (1973) where Kb=IC50×(1+D×EC50^−1)^−1.
Background: GTPγS is a poorly hydrolysed GTP analogue; its binding reports G protein activation.

Test [3] deals with NIH-Swiss mice; 129S6 wild type and nociceptin/ORL1 receptor knockout mice. As to the kind of experiment: Forced-swim test in mice (mFST). Format: in vivo, mouse. The note with it: mFST. From the text: Forced-Swim Test in Mice (mFST) mFST is an established in vivo assay for antidepressant activity (Li et al. J Pharmacol Exp Ther. 319(1):254-9, 2006.). […] The mFST was used to evaluate potential antidepressant-like activity of novel nociceptin/ORL1 antagonists according to previously published methods (Li et al. J Pharmacol Exp Ther. 319(1):254-9, 2006.). Briefly, male NIH-Swiss mice (Harlan Sprague-Dawley, Indianapolis, Ind.) weighing between 25-30 g are used. Group housed animals are removed from the vivarium to the testing area in their own cages and allowed to adapt to the new environment for at least 1 hour before testing. Alternatively, male 129S6 wild type and nociceptin/ORL1 receptor knockout mice were used to confirm dependence of the response to compound was nociceptin/ORL1 receptor dependent. All compounds are prepared in 20% Captisol, 25 mM phosphate buffer, pH 2.0 on the day of use. Mice are placed in a cylinder (diameter: 10 cm; height: 25 cm) filled with 6 cm of water (22-25° C.) for 6 min. The duration of immobility during the last 4 min. of the 6 min. period of the test was scored. A mouse is recorded as immobile when floating motionless or making only those movements necessary to keep its head above water.

A value given as a limit tells only on which side of the number the result lay.

T1 sequence (P41146 whole entry): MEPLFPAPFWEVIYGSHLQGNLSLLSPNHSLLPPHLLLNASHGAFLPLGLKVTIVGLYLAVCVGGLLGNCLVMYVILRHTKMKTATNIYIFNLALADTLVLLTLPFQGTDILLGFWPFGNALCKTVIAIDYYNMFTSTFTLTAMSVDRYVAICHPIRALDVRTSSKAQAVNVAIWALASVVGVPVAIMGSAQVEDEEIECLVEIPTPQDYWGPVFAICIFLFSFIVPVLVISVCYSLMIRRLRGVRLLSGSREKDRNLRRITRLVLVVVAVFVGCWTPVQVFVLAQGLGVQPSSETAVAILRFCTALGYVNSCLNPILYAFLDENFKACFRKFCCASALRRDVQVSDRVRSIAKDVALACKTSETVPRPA
T2 sequence (P41146 whole entry): as above
Adenosine A3, sequence (P0DMS8 whole entry): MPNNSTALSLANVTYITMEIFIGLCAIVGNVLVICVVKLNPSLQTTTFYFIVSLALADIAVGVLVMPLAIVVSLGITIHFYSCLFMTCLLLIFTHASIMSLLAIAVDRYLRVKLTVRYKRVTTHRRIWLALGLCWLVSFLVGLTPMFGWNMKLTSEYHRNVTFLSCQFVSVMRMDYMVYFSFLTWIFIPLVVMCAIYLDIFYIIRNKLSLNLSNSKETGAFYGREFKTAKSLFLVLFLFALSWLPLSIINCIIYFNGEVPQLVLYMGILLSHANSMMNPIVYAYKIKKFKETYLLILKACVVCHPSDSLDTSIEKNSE
Delta Opioid, sequence (P41143 whole entry): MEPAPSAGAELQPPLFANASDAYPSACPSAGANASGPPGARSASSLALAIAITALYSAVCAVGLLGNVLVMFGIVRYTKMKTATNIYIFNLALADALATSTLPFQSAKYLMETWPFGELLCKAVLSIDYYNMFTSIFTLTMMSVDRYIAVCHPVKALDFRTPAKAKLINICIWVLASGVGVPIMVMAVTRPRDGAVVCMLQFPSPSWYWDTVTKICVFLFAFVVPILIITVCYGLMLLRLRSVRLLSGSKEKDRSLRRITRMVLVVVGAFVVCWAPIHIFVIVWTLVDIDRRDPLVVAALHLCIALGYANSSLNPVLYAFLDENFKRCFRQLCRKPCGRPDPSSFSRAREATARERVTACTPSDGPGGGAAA

As a reminder, the Ki is a measure of affinity in units of concentration, obtained from inhibition or displacement. Low values mean tighter binding, high ones weaker binding. Take `Cc1nn(-c2c(F)cccc2F)cc1CN1CCC2(CC1)OCC(F)(F)c1cc(Cl)sc12.O=C(O)C(O)C(O)C(=O)O` [Example 2, 2-Chloro-1′-[[1-(2,6-difluorophenyl)-3-methyl-pyrazol-4-yl]methyl]-4,4-difluoro-spiro[5H-thieno[2,3-c]pyran-7,4′-piperidine] (L)-Tartrate]: the Ki in test [1] was 0.17 nM; on Delta Opioid, above 481 nM; on Adenosine A3, 2300 nM. In test [2], this molecule showed a Kb of 0.43 nM. Moreover, the “maximum effect, reduction in immobilization time” value in test [3] stood at 56%. In test [3] (immobility time), this molecule returned an ED60 of 23 nM.

(Values after patent publication US20120214784A1, “SPIROPIPERIDINE COMPOUNDS AS ORL-1 RECEPTOR ANTAGONISTS” (ELI LILLY AND COMPANY, priority 2009, published 2012).)
